According to patent US11351151B2, “Compound having anticancer activity and preparation method and application” (3D Medicines (Beijing) Co., Ltd., priority 2016, dated 2022):

How the values were obtained:
Type in all cases: cell-based
[1] = tested on: 54 commercial tumor cell lines; test: Cell proliferation assay (Alamar Blue), summary over the panel; details: in almost all tumor cell lines
Method: (§1) 1. Instruments and Materials • Thermo 311 CO2 incubator; Haier biosafety cabinet; Molecular Devices microplate reader; Xiangyi brand L530 desktop low speed centrifuge; Olympus IX51 inverted fluorescence microscope, DMEM, RPMI 1640, MEM, DMEM/F12 1:1 medium, Fetal bovine serum, 0.25% trypsin solution, phosphate buffer (Thermo Fisher Shanghai Co., Ltd.); sigma dimethyl sulfoxide (DMSO), resazurin; 54 commercial tumor cell lines (including 26 liver cancer cell lines). Experimental drugs: compounds 1-12 and active drug Linifanib; chemotherapeutic drug Doxorubicin (HY-15142; Shanghai Qianyuan Biomedical Technology Co., Ltd.).
2. Experimental Methods • 2.1 Cultivation of different cell lines • 54 cell lines were cultured in a culture medium containing fetal bovine serum and placed in a 5% CO 2 incubator at 37° C. for incubation. The cells were all grown in an adherent state, and the growth was observed under an inverted microscope, and subculture was performed when the cell confluence rate reached 80%-90%. The proportion and quantity of passage were determined by experimental needs. The ratio of subculture of this cell line was generally 1:2^˜1:3. • 2.2 inhibition effect on the proliferation of different tumor cell lines • Cell test: 54 cell lines in logarithmic growth phase were inoculated in 96-well culture plates at 500^˜1×10^4/well (the optimal seeding density of each cell line was determined in pre-experiment), After incubating at 37° C. for 4 h in a 5% CO2 humidification incubator, added 10 μL of compounds 1-12 or Linifanib to each well, and tested 9 drug concentration gradients for each compound (diluted from the highest concentration of the test by 3.16 times). The solubility of each compound was different at a starting concentration of 30 or 100 μM, respectively. The QC reference compound Doxorubicin was added simultaneously to each cell line test, and the final drug concentrations were 10, 3.16, 1, 0.31, 0.1, 0.03, 0.01, 0.003, and 0.001 μM, respectively. In addition, a positive control group (100% inhibition) and a negative control group (0% inhibition) were set at the same time. The drug group was repeated for 2 wells per concentration, and the positive control group and the negative control group were repeated for 6 wells. After the culture was continued for 6 days in the incubator, AlamarBlue test operation was followed; • AlamarBlue test procedure: Incubated with 10 μL of AlamarBlue reagent per well for 1-4 h, shook for 1-2 min, MD microplate reader EX: 560 nm, EM: 590 nm wavelength to measure fluorescence, recorded the results, calculated the cell inhibition rate of the compound of the invention. […]

JHH6 = test: Cell proliferation assay (Alamar Blue); details: 144 h; JHH6 liver cancer cell line; 6 days
Outline: (§2)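 AlamarBlue fluorescence (ex 560, em 590 nm) after 6-day compound exposure; IC50 by four-parameter fit. Nine 3.16-fold dilutions, top 30 or 100 μM, duplicate wells. Log-phase cells plated at line-optimised density, 4 h pre-incubation.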

SNU182 = test: Cell proliferation assay (Alamar Blue); details: Homo sapiens, SNU-182, 144 h; SNU182 liver cancer cell line; 6 days
Outline: as §2

LC-2-ad = test: Cell proliferation assay (Alamar Blue); details: Homo sapiens, 144 h; LC-2-ad tumor cell line; 6 days
Outline: as §2

KM12 = test: Cell proliferation assay (Alamar Blue); details: Homo sapiens, 144 h; KM12 tumor cell line; 6 days
Outline: as §2

MDA-MB-435S = test: Cell proliferation assay (Alamar Blue); details: Homo sapiens, 144 h; MDA-MB-435S tumor cell line; 6 days
Outline: as §2

HLF = test: Cell proliferation assay (Alamar Blue); details: 144 h; HLF liver cancer cell line; 6 days
Outline: as §2

JHH4 = test: Cell proliferation assay (Alamar Blue); details: JHH-4, 144 h; JHH4 liver cancer cell line; 6 days
Outline: as §2

CCRF-CEM = test: Cell proliferation assay (Alamar Blue); details: Homo sapiens, 144 h; CCRF-CEM tumor cell line; 6 days
Outline: as §2

[2] = tested on: 26 liver cancer cell lines; test: Cell proliferation assay (Alamar Blue), summary over liver cancer lines
Method: as §1
2. […] The proportion and quantity of passage were determined by experimental needs. The ratio of subculture of this cell line was generally 1:2^˜1:3. • 2.2 inhibition effect on the proliferation of different tumor cell lines • Cell test: 54 cell lines in logarithmic growth phase were inoculated in 96-well culture plates at 500^˜1×10^4/well (the optimal seeding density of each cell line was determined in pre-experiment), After incubating at 37° C. for 4 h in a 5% CO2 humidification incubator, added 10 μL of compounds 1-12 or Linifanib to each well, and tested 9 drug concentration gradients for each compound (diluted from the highest concentration of the test by 3.16 times). […]

Row | Structure (SMILES) | IC50 values compared with Linifanib [1] | IC50 (SNU182) | IC50 (MDA-MB-435S) | IC50 (CCRF-CEM) | IC50 ([2]; nearly half of the liver cancer cell lines (12/26, 46%), moderately sensitive) | IC50 (JHH6) | IC50 (LC-2-ad) | IC50 (KM12) | IC50 (HLF) | IC50 (JHH4) | difference of IC50 values versus Linifanib ([2]; most of the liver cancer cell lines (15/26, 58%))
1 | Cc1ccc(F)c(NC(=O)Nc2ccc(-c3cccc4c3c(N)nn4C(=O)CCCCCCCCCCCNC(=O)C[C@H](N)C(=O)O)cc2)c1 [Compound 12] | – | 19.5 µM | > 30 µM | > 30 µM | – | > 30 µM | > 30 µM | > 30 µM | > 30 µM | > 30 µM | –
2 | Cc1ccc(F)c(NC(=O)Nc2ccc(-c3cccc4c3c(N)nn4C(=O)CCCCCNC(=O)C[C@H](N)C(=O)N[C@@H](CCC(=O)N[C@@H](CCC(=O)N[C@@H](CCC(=O)N[C@@H](CCC(=O)N[C@@H](CCC(=O)N[C@@H](CCC(=O)N[C@@H](CCC(=O)N[C@@H](CCC(=O)N[C@@H](CCC(=O)O)C(=O)O)C(=O)O)C(=O)O)C(=O)O)C(=O)O)C(=O)O)C(=O)O)C(=O)O)C(=O)O)cc2)c1 [Compound 6] | – | > 100 µM | > 100 µM | 90.5 µM | – | > 100 µM | 67.8 µM | 70 µM | 82.1 µM | 79 µM | –
3 | Cc1ccc(F)c(NC(=O)Nc2ccc(-c3cccc4c3c(N)nn4C(=O)CCCCCCCCCCCNC(=O)C[C@H](N)C(=O)N[C@@H](CCC(=O)N[C@@H](CCC(=O)N[C@@H](CCC(=O)N[C@@H](CCC(=O)N[C@@H](CCC(=O)N[C@@H](CCC(=O)N[C@@H](CCC(=O)N[C@@H](CCC(=O)N[C@@H](CCC(=O)O)C(=O)O)C(=O)O)C(=O)O)C(=O)O)C(=O)O)C(=O)O)C(=O)O)C(=O)O)C(=O)O)cc2)c1 [Compound 9] | – | > 100 µM | > 100 µM | 30.2 µM | – | 65.3 µM | 70.5 µM | 21.8 µM | 63.4 µM | > 100 µM | –
4 | Cc1ccc(F)c(NC(=O)Nc2ccc(-c3cccc4[nH]nc(N)c34)cc2)c1 [Linifanib, reference compound] | – | 15.2 µM | 10.7 µM | 5.03 µM | < 5 µM | 4.11 µM | 4.78 µM | 1.39 µM | 3.65 µM | 10.6 µM | –
5 | Cc1ccc(F)c(NC(=O)Nc2ccc(-c3cccc4c3c(N)nn4C(=O)CCCCCNC(=O)C[C@H](N)C(=O)O)cc2)c1 [Compound 11] | – | > 100 µM | 87.6 µM | 40.7 µM | – | 54.4 µM | 27.5 µM | 28.5 µM | 49.4 µM | 38.7 µM | –
6 | Cc1ccc(F)c(NC(=O)Nc2ccc(-c3cccc4c3c(N)nn4C(=O)CCCCCNC(=O)C[C@H](N)C(=O)N[C@@H](CCC(=O)N[C@@H](CCC(=O)N[C@@H](CCC(=O)N[C@@H](CCC(=O)O)C(=O)O)C(=O)O)C(=O)O)C(=O)O)cc2)c1 [Compound 5] | – | > 100 µM | > 100 µM | 70.3 µM | – | 79.3 µM | 51.3 µM | 45.7 µM | 63.9 µM | 60.3 µM | –
7 | Cc1ccc(F)c(NC(=O)Nc2ccc(-c3cccc4c3c(N)nn4C(=O)C[C@H](N)C(=O)O)cc2)c1 [Compound 10] | close to those of Linifanib | 13.3 µM | 13.3 µM | 1.74 µM | – | 2.46 µM | 6.38 µM | 1.47 µM | 3.87 µM | 2.31 µM | –
8 | Cc1ccc(F)c(NC(=O)Nc2ccc(-c3cccc4c3c(N)nn4C(=O)CCCCCCCCCCCNC(=O)C[C@H](N)C(=O)N[C@@H](CCC(=O)N[C@@H](CCC(=O)N[C@@H](CCC(=O)N[C@@H](CCC(=O)O)C(=O)O)C(=O)O)C(=O)O)C(=O)O)cc2)c1 [Compound 8] | – | > 100 µM | 38.5 µM | > 100 µM | – | 41.7 µM | 50.2 µM | 12.4 µM | 44.6 µM | 95.9 µM | more than 8 times

The next lines start with results.

Row | IC50 values compared with Linifanib [1] | IC50 (SNU182) | IC50 (MDA-MB-435S) | IC50 (CCRF-CEM) | IC50 ([2]; nearly half of the liver cancer cell lines (12/26, 46%), moderately sensitive) | Structure (SMILES) | IC50 (JHH6) | IC50 (LC-2-ad) | IC50 (KM12) | IC50 (HLF) | IC50 (JHH4) | difference of IC50 values versus Linifanib ([2]; most of the liver cancer cell lines (15/26, 58%))
9 | close to those of Linifanib | 19.9 µM | 18.9 µM | 2.5 µM | – | Cc1ccc(F)c(NC(=O)Nc2ccc(-c3cccc4c3c(N)nn4C(=O)C[C@H](N)C(=O)N[C@@H](CCC(=O)O)C(=O)O)cc2)c1 [Compound 1] | 3 µM | 8.89 µM | 1.89 µM | 3.98 µM | 2.62 µM | –
10 | – | > 100 µM | 98.8 µM | 51.7 µM | – | Cc1ccc(F)c(NC(=O)Nc2ccc(-c3cccc4c3c(N)nn4C(=O)CCCCCNC(=O)C[C@H](N)C(=O)N[C@@H](CCC(=O)O)C(=O)O)cc2)c1 [Compound 4] | 67.7 µM | 36.9 µM | 33.9 µM | 52.6 µM | 42.5 µM | –
11 | – | > 100 µM | > 100 µM | 15 µM | – | Cc1ccc(F)c(NC(=O)Nc2ccc(-c3cccc4c3c(N)nn4C(=O)CCCCCCCCCCCNC(=O)C[C@H](N)C(=O)N[C@@H](CCC(=O)O)C(=O)O)cc2)c1 [Compound 7] | 23.6 µM | 54.3 µM | 7.72 µM | 24.4 µM | 39.4 µM | –
12 | close to those of Linifanib | 54.2 µM | 46.4 µM | 10.2 µM | – | Cc1ccc(F)c(NC(=O)Nc2ccc(-c3cccc4c3c(N)nn4C(=O)C[C@H](N)C(=O)N[C@@H](CCC(=O)N[C@@H](CCC(=O)N[C@@H](CCC(=O)N[C@@H](CCC(=O)N[C@@H](CCC(=O)N[C@@H](CCC(=O)N[C@@H](CCC(=O)N[C@@H](CCC(=O)N[C@@H](CCC(=O)O)C(=O)O)C(=O)O)C(=O)O)C(=O)O)C(=O)O)C(=O)O)C(=O)O)C(=O)O)C(=O)O)cc2)c1 [Compound 3] | 7.51 µM | 22.4 µM | 4.63 µM | 7.73 µM | 12.1 µM | –
13 | close to those of Linifanib | 32.1 µM | 30 µM | 6.33 µM | – | Cc1ccc(F)c(NC(=O)Nc2ccc(-c3cccc4c3c(N)nn4C(=O)C[C@H](N)C(=O)N[C@@H](CCC(=O)N[C@@H](CCC(=O)N[C@@H](CCC(=O)N[C@@H](CCC(=O)O)C(=O)O)C(=O)O)C(=O)O)C(=O)O)cc2)c1 [Compound 2] | 4.38 µM | 13.5 µM | 2.94 µM | 4.94 µM | 5.83 µM | –
